One data set has as its target T1, AR-LBD protein (Rattus norvegicus, UniProt P15207).
T1 sequence (P15207 651-882 limits assumed): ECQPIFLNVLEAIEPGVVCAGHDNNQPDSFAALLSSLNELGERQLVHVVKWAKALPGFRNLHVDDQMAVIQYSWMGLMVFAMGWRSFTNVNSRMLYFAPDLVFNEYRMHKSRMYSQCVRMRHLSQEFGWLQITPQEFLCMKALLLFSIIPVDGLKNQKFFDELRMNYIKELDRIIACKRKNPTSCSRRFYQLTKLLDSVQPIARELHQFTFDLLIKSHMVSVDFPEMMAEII
Description: AR fluorescence-polarization. Format: binding.

The next data set can be described thus: Oral exposure in mice. It is filed as in vivo, mouse. The following applies: for Plasma drug concentration (mean ± SD): mice, 10 mg/kg oral gavage.
For the next data set, the system named is VCaP xenograft tumor. Nature of the data set: Antitumor activity in VCaP xenograft tumor model in SCID mice. It is filed as in vivo, mouse. The conditions noted are these: all doses tested (3.75-25 mg/kg), entire experiment.
A further data set in a line: PK study in mouse. It is filed as in vivo. The conditions noted are these: male, ICR, plasma, po, 5 mg/kg.
A further data set concerns KLK3 (PSA) gene. Description: Suppression of KLK3. It is filed as cell-based, human.
For data set [1], the target named is T2, AR protein (Homo sapiens, UniProt P10275).
T2 sequence (P10275 1-920): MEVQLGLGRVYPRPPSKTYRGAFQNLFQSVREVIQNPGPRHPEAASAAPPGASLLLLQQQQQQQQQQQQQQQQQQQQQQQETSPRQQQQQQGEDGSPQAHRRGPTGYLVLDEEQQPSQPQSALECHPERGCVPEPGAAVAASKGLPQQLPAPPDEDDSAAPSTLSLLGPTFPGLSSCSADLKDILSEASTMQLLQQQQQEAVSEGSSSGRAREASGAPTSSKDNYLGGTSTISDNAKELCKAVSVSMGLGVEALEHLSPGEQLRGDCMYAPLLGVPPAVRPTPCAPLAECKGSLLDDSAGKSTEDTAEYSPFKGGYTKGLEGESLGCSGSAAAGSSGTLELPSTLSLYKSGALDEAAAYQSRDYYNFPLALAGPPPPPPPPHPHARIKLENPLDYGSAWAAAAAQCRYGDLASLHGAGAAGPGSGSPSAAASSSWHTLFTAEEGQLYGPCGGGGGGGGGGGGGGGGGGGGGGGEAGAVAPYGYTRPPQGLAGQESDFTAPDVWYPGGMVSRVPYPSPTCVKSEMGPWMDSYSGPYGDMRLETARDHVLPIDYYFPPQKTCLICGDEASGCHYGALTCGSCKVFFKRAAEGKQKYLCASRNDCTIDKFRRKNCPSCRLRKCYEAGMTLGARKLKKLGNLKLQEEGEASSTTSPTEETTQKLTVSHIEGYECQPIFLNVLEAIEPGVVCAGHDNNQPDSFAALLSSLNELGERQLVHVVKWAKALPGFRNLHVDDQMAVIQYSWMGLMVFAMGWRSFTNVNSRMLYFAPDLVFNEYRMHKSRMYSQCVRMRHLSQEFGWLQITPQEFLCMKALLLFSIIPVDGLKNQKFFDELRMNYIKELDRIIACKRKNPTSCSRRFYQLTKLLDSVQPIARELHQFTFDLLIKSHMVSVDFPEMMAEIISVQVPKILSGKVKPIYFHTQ
Description: AR protein degradation in VCaP cells, Western blotting. It is filed as cell-based. The following applies: VCaP and LNCaP cell lines. Background: A western blot detects proteins with antibodies after separation by electrophoresis.

A short description of a further data set: PK study in dog. It is filed as in vivo. The following applies: male, beagle, plasma, po, 1 mg/kg.
The next data set is described as follows: PK study in rat. It is filed as in vivo. The conditions noted are these: male, Sprague-Dawley, plasma, po, 10 mg/kg.
The target of data set [2] is T2, AR protein. Description: Multiplexed quantitative proteomics analysis in VCaP cells. It is filed as cell-based. The conditions noted are these: 10 μM, 24 h.
Setting [3] is: male, SCID, mouse, plasma, po, 10 mg/kg.

Marks after values point to notes of the source that are not given here. A value given as a limit tells only on which side of the number the result lay.

For the molecule `CN1CCN(c2ccc(C(=O)N3CCC4(CC3)CCN(c3ccc(C#N)c(Cl)c3)C4)cc2)CC1` [Compound 14b], the “times more potent than 14a in AR binding” value at AR-LBD protein (vs 14a) worked out at 2.
In the data set “Oral exposure in mice” (setting [3]), `N#Cc1ccc(N2CCC3(CCN(c4ccc(C(=O)N5CCCN(C6CCN(c7ccc8c(c7)C(=O)N(C7CCC(=O)NC7=O)C8=O)CC6)CC5)cc4)CC3)C2)cc1Cl` (stereo not drawn) [Compound 21, 2-chloro-4-(8-(4-(4-(1-(2-(2,6-dioxopiperidin-3-yl)-1,3-dioxoisoindolin-5-yl)piperidin-4-yl)-1,4-diazepane-1-carbonyl)phenyl)-2,8-diazaspiro[4.5]decan-2-yl)benzonitrile] returned a concentration at 1 h of 46 ± 16 ng/mL, a concentration at 3 h of 8 ± 1 ng/mL and a concentration at 6 h of 11 ± 3 ng/mL.
Take `N#Cc1ccc(N2CCC3(CCN(c4ccc(C(=O)N5CCN(C6CN(c7ccc8c(c7)C(=O)N(C7CCC(=O)NC7=O)C8=O)C6)CC5)cc4)CC3)C2)cc1Cl` (stereo not drawn) [Compound 27, 2-chloro-4-(8-(4-(4-(1-(2-(2,6-dioxopiperidin-3-yl)-1,3-dioxoisoindolin-5-yl)azetidin-3-yl)piperazine-1-carbonyl)phenyl)-2,8-diazaspiro[4.5]decan-2-yl)benzonitrile]: in “Oral exposure in mice” (setting [3]), the concentration at 1 h came to 501 ng/mL, the concentration at 3 h was found to be 171 ng/mL, the concentration at 6 h was 246 ng/mL and the concentration at 24 h stood at 44 ng/mL. Further, the “Plasma drug concentration (mean ± SD)” value in the data set “Oral exposure in mice” (1 h, 10 mg/kg) came out at 501 ± 106 ng/mL. Further, in “Oral exposure in mice” (3 h, 10 mg/kg), the “Plasma drug concentration (mean ± SD)” value came to 171 ± 83 ng/mL. Moreover, in “Oral exposure in mice” (6 h, 10 mg/kg), the “Plasma drug concentration (mean ± SD)” value came to 246 ± 27 ng/mL. For the same molecule, the “Plasma drug concentration (mean ± SD)” value in “Oral exposure in mice” (24 h, 10 mg/kg) turned out to be 44 ± 5 ng/mL.
On to “2-chloro-4-(8-(4-(4-(4-(2-(2,6-dioxopiperidin-3-yl)-1,3-dioxoisoindolin-5-yl)piperazin-1-yl)piperidin-1-yl)benzoyl)-2,8-diazaspiro[4.5]decan-2-yl)benzonitrile [Compound 20]”, for which the “Plasma drug concentration (mean ± SD)” value in “Oral exposure in mice” (1 h) was 82^b ng/ml; in “Oral exposure in mice” (3 h), 57^b ng/ml; in the data set “Oral exposure in mice” (6 h), 91^b ng/ml; in the data set “Oral exposure in mice” (24 h), 3^b ng/ml.
Take `N#Cc1ccc(N2CCC3(CCN(c4ccccc4)CC3)C2)cc1Cl` [Compound 15a]: at AR-LBD protein, the IC50 was > 1 µM.
As to `C[C@H]1CC2(CCN(c3ccc(C(=O)N4CCN(C5CN(c6ccc7c(c6)C(=O)N(C6CCC(=O)NC6=O)C7=O)C5)CC4)cc3)CC2)CN1c1ccc(C#N)c(Cl)c1` (stereo partly drawn) [Compound 30, 2-chloro-4-((3S)-8-(4-(4-(1-(2-(2,6-dioxopiperidin-3-yl)-1,3-dioxoisoindolin-5-yl)azetidin-3-yl)piperazine-1-carbonyl)phenyl)-3-methyl-2,8-diazaspiro[4.5]decan-2-yl)benzonitrile], the signs of toxicity entry in the data set with VCaP xenograft tumor is “no signs of toxicity”. In the data set “PK study in mouse”, this molecule came in with an AUC(0-t) of 11700 ng·h/mL and a Cmax of 1480 ng/mL. For the same molecule, the “times more potent than Enzalutamide in suppressing KLK3 gene expression” value with KLK3 (PSA) gene (VCaP and LNCaP cell lines) is recorded as “at least 30”. In the data set with KLK3 (PSA) gene (VCaP, 1 nM, 24 h), the “suppression of expression of KLK3 gene” value was determined as 51%. The “times more potent than ARV-110 in inducing AR degradation” value at AR protein [1] is 6-9. In “PK study in dog”, this molecule showed an AUC of 1820 ng·h/mL. In “PK study in rat”, the AUC(0-t) was 12800 ng·h/mL and the Cmax was determined as 1470 ng/mL.
With `C[C@H]1CC2(CCN(c3ccc(C(=O)N4CCN(C)CC4)cc3)CC2)CN1c1ccc(C#N)c(Cl)c1` [ARi-12, (S)-2-chloro-4-(3-methyl-8-(4-(4-methylpiperazine-1-carbonyl)phenyl)-2,8-diazaspiro[4.5]decan-2-yl)benzonitrile], the “effect on protein levels (proteomics)” value at AR protein [2] is listed as “did not significantly alter the levels of any proteins analyzed”.

As a reminder, the IC50 is the concentration that inhibits the measured activity by half. Read a low IC50 as inhibition by little substance. Broadly, the AUC(0-t) is exposure summed from dosing to a finite time, without extrapolation to infinity. The Cmax is the maximum level reached in the sampled fluid or tissue. One may read the AUC as concentration integrated over time. A low value points to less exposure.

For the origin of these results see publication PMC10568492 (Journal of medicinal chemistry, 2023).
